According to the supplement of paper PMC10627819:

How the values were obtained:
S. pneumoniae D39V [1] = assay: Bliss interaction score (quartile over a dose matrix) (fitness difference); higher = more antagonism (negative = synergy)
Procedure, shortened: (§1)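 Growth was read as OD595 when cultures entered stationary phase, and each value was divided by the plate's robust no-drug mean and capped at 1. This normalised ratio is the fitness value, and fitness for each single drug came from the combination data. The Bliss score subtracts the expected fitness, taken as the product, from the observed fitness and is given as quartiles across technical, biological and donor/recipient replicates.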

S. aureus Newman [2] = assay: as above
Procedure, shortened: as §1

B. subtilis 168 = assay: as above
Procedure, shortened: as §1

S. aureus DSM 20231 = assay: as above
Procedure, shortened: as §1

S. pneumoniae D39V [3] = assay: fitness (endpoint OD595 vs no drug) (fraction); higher = more growth
Procedure, shortened: (§2)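 Each well of a 384-well plate received 30 µl of culture at OD595 0.01, or 55 µl for S. pneumoniae. TSB, LB Lennox or CY served as media at 37 °C. OD595 was taken every 30 min for 14 h and corrected by subtracting the first reading. Fitness is the optical density at stationary-phase entry divided by the robust mean of no-drug controls, capped at 1.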

S. aureus Newman [4] = assay: as above; conditions: one replicate
Procedure, shortened: as §2
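For Bliss interaction score (quartile over a dose matrix) in this document: first quartile when negative (synergy) and third quartile when positive (antagonism).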

CO/N=C(\C(=O)N[C@@H]1C(=O)N2C(C(=O)O)=C(COC(C)=O)CS[C@H]12)c1csc(N)n1 [Cefotaxime] + C/C(=C\C(=O)OCCCCCCCCC(=O)O)C[C@@H]1OC[C@H](C[C@@H]2O[C@H]2[C@@H](C)[C@H](C)O)[C@@H](O)[C@H]1O [Pseudomonic acid]
Conditions | Bliss interaction score
B. subtilis 168 | 0.0549
S. aureus DSM 20231 | 0.0223
S. aureus Newman [2] | 0.022
S. pneumoniae D39V [1] | 0.0643

fitness
Conditions | first compound 0.0018 µg/mL | first compound 0.0035 µg/mL | first compound 0.007 µg/mL | first compound 0.078 µg/mL | first compound 0.156 µg/mL | first compound 0.312 µg/mL
S. aureus Newman [4], partner 0.0313 µg/mL | – | – | – | 0.054 | 0.0458 | 0.0509
S. aureus Newman [4], partner 0.0625 µg/mL | – | – | – | 0.0409 | 0.0394 | 0.0414
S. aureus Newman [4], partner 0.125 µg/mL | – | – | – | 0.0477 | 0.0707 | 0.0616
S. pneumoniae D39V [3], partner 0.03 µg/mL | 0.978 | 0.962 | 0.962 | – | – | –
S. pneumoniae D39V [3], partner 0.06 µg/mL | 0.833 | 0.862 | 0.809 | – | – | –
S. pneumoniae D39V [3], partner 0.12 µg/mL | 0.551 | 0.56 | 0.517 | – | – | –

CO/N=C(\C(=O)N[C@@H]1C(=O)N2C(C(=O)O)=C(COC(N)=O)CS[C@H]12)c1ccco1 [Cefuroxime] + CCCCCCCCCC(=O)N[C@@H]1[C@H]([C@@H]([C@H](O[C@H]1OC2=C3C=C4C=C2OC5=C(C=C(C=C5)[C@H]([C@H]6C(=O)N[C@@H](C7=C(C(=CC(=C7)O)OC8[C@H]([C@H]([C@@H]([C@H](O8)CO)O)O)O)C9=C(C=CC(=C9)[C@H](C(=O)N6)NC(=O)[C@@H]4NC(=O)[C@@H]1C2=CC(=CC(=C2)OC2=C(C=CC(=C2)[C@H](C(=O)N[C@H](CC2=CC(=C(O3)C=C2)Cl)C(=O)N1)N)O)O)O)C(=O)O)O[C@H]1[C@@H]([C@H]([C@@H]([C@H](O1)CO)O)O)NC(=O)C)Cl)CO)O)O [Teicoplanin]
main component drawn
Conditions | Bliss interaction score
B. subtilis 168 | -0.0964
S. aureus DSM 20231 | 0.15
S. aureus Newman [2] | 0.0304
S. pneumoniae D39V [1] | -0.0352

fitness, S. aureus Newman [4], main component drawn
Conditions | first compound 0.04875 µg/mL | first compound 0.0975 µg/mL | first compound 0.195 µg/mL
partner 0.1562 µg/mL | ≥ 1 | 0.968 | 0.888
partner 0.3125 µg/mL | 0.991 | 0.968 | 0.953
partner 0.625 µg/mL | ≥ 1 | 0.977 | 0.973

CO/N=C(\C(=O)N[C@@H]1C(=O)N2C(C(=O)O)=C(COC(N)=O)CS[C@H]12)c1ccco1 [Cefuroxime] + CN[C@H](CC(C)C)C(=O)N[C@H]1C(=O)N[C@@H](CC(N)=O)C(=O)N[C@H]2C(=O)N[C@H]3C(=O)N[C@H](C(=O)N[C@H](C(=O)O)c4cc(O)cc(O)c4-c4cc3ccc4O)[C@H](O)c3ccc(c(Cl)c3)Oc3cc2cc(c3O[C@@H]2O[C@H](CO)[C@@H](O)[C@H](O)[C@H]2O[C@H]2C[C@](C)(N)[C@H](O)[C@H](C)O2)Oc2ccc(cc2Cl)[C@H]1O [Vancomycin]
Conditions | Bliss interaction score
B. subtilis 168 | -0.0941
S. aureus DSM 20231 | 0.14
S. aureus Newman [2] | 0.0418
S. pneumoniae D39V [1] | -0.0597

fitness, S. aureus Newman [4]
Conditions | first compound 0.04875 µg/mL | first compound 0.0975 µg/mL | first compound 0.195 µg/mL
partner 0.1875 µg/mL | 0.934 | 0.974 | 0.943
partner 0.375 µg/mL | 0.93 | 0.995 | 0.925
partner 0.75 µg/mL | 0.975 | 0.988 | 0.926

CO/N=C(\C(=O)N[C@@H]1C(=O)N2C(C(=O)O)=C(COC(N)=O)CS[C@H]12)c1ccco1 [Cefuroxime] + Cn1nnc(-c2ccc(-c3ccc(N4C[C@H](CO)OC4=O)cc3F)cn2)n1 [Tedizolid]
Conditions | Bliss interaction score
B. subtilis 168 | 0.136
S. aureus DSM 20231 | -0.223
S. aureus Newman [2] | 0.259
S. pneumoniae D39V [1] | 0.026

fitness, S. aureus Newman [4]
Conditions | first compound 0.04875 µg/mL | first compound 0.0975 µg/mL | first compound 0.195 µg/mL
partner 0.0625 µg/mL | 0.614 | 0.641 | 0.517
partner 0.125 µg/mL | 0.0599 | 0.0707 | 0.0587
partner 0.25 µg/mL | 0.496 | 0.513 | 0.425
